In US20030215462A1, “Use of UGT inhibitors to increase bioavailability” (priority 2001, published 2003):
Values joined by “and” are separate entries in the source; they are usually repeats but may differ in a detail not shown here. Identical values can stand only once.

What was measured:
UGT1A8 = molecular target: T1, UGT1A8 (Homo sapiens, UniProt Q9HAW9); test: Inhibition of raloxifene glucuronidation by recombinant UGT1A8 Supersomes; conditions: human, Supersomes with recombinant human UGT1A8, pH 7.5, probe raloxifene 50 μM, inhibitor 10 μM
T1 sequence (Q9HAW9 26-530): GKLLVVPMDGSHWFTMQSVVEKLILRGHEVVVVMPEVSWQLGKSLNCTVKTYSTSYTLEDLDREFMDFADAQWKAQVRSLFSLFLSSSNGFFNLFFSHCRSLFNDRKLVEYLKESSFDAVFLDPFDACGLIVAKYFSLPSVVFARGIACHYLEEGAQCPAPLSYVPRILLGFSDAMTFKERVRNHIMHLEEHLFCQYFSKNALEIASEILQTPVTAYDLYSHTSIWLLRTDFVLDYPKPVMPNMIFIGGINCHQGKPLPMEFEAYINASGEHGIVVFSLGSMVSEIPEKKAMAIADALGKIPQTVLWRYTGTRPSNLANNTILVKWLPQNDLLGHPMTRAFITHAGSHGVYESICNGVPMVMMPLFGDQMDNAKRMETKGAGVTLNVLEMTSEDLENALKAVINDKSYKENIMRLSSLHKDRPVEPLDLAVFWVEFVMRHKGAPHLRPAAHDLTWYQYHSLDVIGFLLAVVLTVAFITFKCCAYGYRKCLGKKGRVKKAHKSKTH
Description: (§1) Compounds were eluted using a binary solvent gradient system. Solvent A was water brought to pH 8 with NH4OH. Solvent B was methanol. Solvent flow rate was 1 ml/min and the column temperature was maintained at 50° C. Detection was at 280 nm. […] The system was then returned to the initial conditions and equilibrated for 3 min.

[1] = tested on: UGT enzymes of pooled human jejunum microsomes; test: Inhibition of 2ME2 glucuronidation (MG1) in pooled human jejunum microsomes; format: biochemical; conditions: jejunum HJ61, 2ME2 50 μM
Description: Compounds were eluted using a binary solvent gradient system where solvent A was dilute phosphoric acid (pH 3) and solvent B was 80:20 acetonitrile-methanol. […] Detection was at 280 nm.

UGT1A10 = molecular target: T2, UGT1A10 (Homo sapiens, UniProt Q9HAW8); test: Inhibition of raloxifene glucuronidation by recombinant UGT1A10 Bacculosomes; conditions: human, Bacculosomes with recombinant human UGT1A10, pH 7.5, probe raloxifene 50 μM; for activity at 15 min, 25 µM: inhibitor 25 μM; for activity at 15 min, 50 µM: inhibitor 50 μM
T2 sequence (Q9HAW8 26-530): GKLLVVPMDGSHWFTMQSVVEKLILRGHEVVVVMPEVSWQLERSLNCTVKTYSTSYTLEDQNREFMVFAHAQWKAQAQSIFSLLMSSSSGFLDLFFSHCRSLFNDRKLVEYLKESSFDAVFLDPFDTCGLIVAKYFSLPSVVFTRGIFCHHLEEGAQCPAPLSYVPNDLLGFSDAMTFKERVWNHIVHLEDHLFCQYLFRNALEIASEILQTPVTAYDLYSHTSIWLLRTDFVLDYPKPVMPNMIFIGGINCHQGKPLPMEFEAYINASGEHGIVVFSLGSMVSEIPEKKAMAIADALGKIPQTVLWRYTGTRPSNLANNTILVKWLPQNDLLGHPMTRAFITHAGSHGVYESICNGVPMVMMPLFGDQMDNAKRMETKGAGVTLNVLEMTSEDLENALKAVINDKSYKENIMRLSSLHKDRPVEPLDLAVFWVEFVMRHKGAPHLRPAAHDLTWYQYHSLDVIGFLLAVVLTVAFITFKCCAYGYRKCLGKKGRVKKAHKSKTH
Description: as §1

[2] = molecular target: T3, UGT enzymes of human liver microsomes (Homo sapiens, UniProt P16662); test: Inhibition of zidovudine glucuronidation in human liver microsomes; format: biochemical; conditions: liver lot 062101
T3 construct: residual metabolism (percentage of control), zidovudine glucuronidation; other: liver lot 062101; residual metabolism (percentage of control), zidovudine glucuronidation; residual metabolism (percentage of control)
T3 sequence (P16662 1-529): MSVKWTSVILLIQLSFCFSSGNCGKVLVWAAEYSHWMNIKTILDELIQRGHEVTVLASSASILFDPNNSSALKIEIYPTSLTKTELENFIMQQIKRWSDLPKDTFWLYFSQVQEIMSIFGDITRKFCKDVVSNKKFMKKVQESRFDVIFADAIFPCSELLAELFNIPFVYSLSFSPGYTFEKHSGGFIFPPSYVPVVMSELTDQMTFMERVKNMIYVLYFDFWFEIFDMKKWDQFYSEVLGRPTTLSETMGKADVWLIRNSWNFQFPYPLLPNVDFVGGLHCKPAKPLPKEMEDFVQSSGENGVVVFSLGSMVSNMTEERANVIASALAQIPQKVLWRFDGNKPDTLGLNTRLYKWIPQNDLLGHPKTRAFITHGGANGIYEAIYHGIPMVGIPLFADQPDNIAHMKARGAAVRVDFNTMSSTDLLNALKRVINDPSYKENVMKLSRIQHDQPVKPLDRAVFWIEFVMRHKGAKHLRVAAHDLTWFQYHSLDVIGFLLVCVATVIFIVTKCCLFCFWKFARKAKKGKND
Description: Compounds were eluted using a binary solvent gradient system where solvent A was dilute phosphoric acid (pH 3) and solvent B was acetonitrile.
Standardized incubations utilized 500 μM zidovudine substrate, 1 mg/ml microsomal protein, 5 mM UDPGA and a 30 min incubation time. […] Int.

UGT1A3 = molecular target: T4, UGT1A3 (Homo sapiens, UniProt P35503); test: Inhibition of raloxifene glucuronidation by recombinant UGT1A3 Supersomes; conditions: human; for activity at 15 min, 10 µM: inhibitor 10 μM; for activity at 15 min, 25 µM: inhibitor 25 μM; for activity at 15 min, 50 µM: inhibitor 50 μM
T4 sequence (P35503 29-534): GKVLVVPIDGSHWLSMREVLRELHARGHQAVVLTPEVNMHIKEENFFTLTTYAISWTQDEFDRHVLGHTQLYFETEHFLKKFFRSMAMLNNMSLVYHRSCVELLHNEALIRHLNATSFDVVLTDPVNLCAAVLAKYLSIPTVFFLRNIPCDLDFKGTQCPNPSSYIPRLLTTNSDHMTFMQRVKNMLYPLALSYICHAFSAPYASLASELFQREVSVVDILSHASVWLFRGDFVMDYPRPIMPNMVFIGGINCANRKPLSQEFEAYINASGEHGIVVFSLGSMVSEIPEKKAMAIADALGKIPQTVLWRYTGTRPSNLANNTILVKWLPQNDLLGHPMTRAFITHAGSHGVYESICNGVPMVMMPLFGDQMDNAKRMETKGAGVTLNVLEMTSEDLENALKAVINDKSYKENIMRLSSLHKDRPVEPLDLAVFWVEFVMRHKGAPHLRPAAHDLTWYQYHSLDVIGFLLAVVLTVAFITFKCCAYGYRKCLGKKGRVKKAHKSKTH
Description: as §1

[3] = formation of glucuronide G1, % of control metabolism, raloxifene G1, UGT1A10
[4] = formation of glucuronide G2, % of control metabolism, raloxifene G2, UGT1A10
[5] = Supersomes with recombinant human UGT1A3, pH 7.5, probe raloxifene 50 μM, formation of glucuronide G1, % of control metabolism, raloxifene G1, UGT1A3
[6] = Supersomes with recombinant human UGT1A3, pH 7.5, probe raloxifene 50 μM, formation of glucuronide G2, % of control metabolism, raloxifene G2, UGT1A3
[7] = recombinant UGT1A3 Supersomes, pH 7.5, probe raloxifene 50 μM (formation of glucuronide G1), Inhibition of raloxifene glucuronidation, G1, UGT1A3, G1, raloxifene 50 μM, 250 μg/ml Supersomes, 1 mM UDPGA, 15 min
[8] = recombinant UGT1A3 Supersomes, pH 7.5, probe raloxifene 50 μM (formation of glucuronide G2), Inhibition of raloxifene glucuronidation, G2, UGT1A3, G2, raloxifene 50 μM, 250 μg/ml Supersomes, 1 mM UDPGA, 15 min

- activity at 15 min, 10 µM (UGT1A8; formation of glucuronide G1, % of control metabolism, raloxifene G1, UGT1A8): 73%
- activity at 15 min, 10 µM (UGT1A8; formation of glucuronide G2, % of control metabolism, raloxifene G2, UGT1A8): 75%
- residual metabolism (% of control), 2ME2 MG1 ([1]; inhibitor 2 μM): 63 (1) %
- residual metabolism (% of control), 2ME2 MG1 ([1]; inhibitor 5 μM): 49 (1) %
- residual metabolism (% of control), 2ME2 MG1 ([1]; inhibitor 10 μM): 42 (1) %
- residual metabolism (% of control), 2ME2 MG1 ([1]; inhibitor 25 μM): 5 (0) %
- residual metabolism (% of control), 2ME2 MG1 ([1]; inhibitor 50 μM): <LOQ
- activity at 15 min, 25 µM (UGT1A10; [3]): 56%
- activity at 15 min, 50 µM (UGT1A10; [3]): 10%
- activity at 15 min, 25 µM (UGT1A10; [4]): 53%
- activity at 15 min, 50 µM (UGT1A10; [4]): 8%
- residual metabolism (percentage of control), zidovudine glucuronidation ([2]; inhibitor 50 μM): 54 (2) % and 50 (4) %
- residual metabolism (percentage of control), zidovudine glucuronidation ([2]; inhibitor 100 μM): 42 (2) % and 37 (4) %
- residual metabolism (percentage of control), zidovudine glucuronidation ([2]; inhibitor 200 μM): 20 (2) %
- activity at 15 min, 10 µM (UGT1A3; [5]): 48%
- activity at 15 min, 25 µM (UGT1A3; [5]): 25%
- activity at 15 min, 50 µM (UGT1A3; [5]): 3%
- activity at 15 min, 10 µM (UGT1A3; [6]): 64%
- activity at 15 min, 25 µM (UGT1A3; [6]): 38%
- activity at 15 min, 50 µM (UGT1A3; [6]): 5%
- activity at 15 min, 10 µM (UGT1A3; [7]): 48%
- activity at 15 min, 25 µM (UGT1A3; [7]): 25%
- activity at 15 min, 50 µM (UGT1A3; [7]): 3%
- activity at 15 min, 10 µM (UGT1A3; [8]): 64%
- activity at 15 min, 25 µM (UGT1A3; [8]): 38%
- activity at 15 min, 50 µM (UGT1A3; [8]): 5%
Compound: O=C(OC[C@H]1O[C@@H](OC(=O)c2cc(O)c(O)c(OC(=O)c3cc(O)c(O)c(O)c3)c2)[C@H](OC(=O)c2cc(O)c(O)c(OC(=O)c3cc(O)c(O)c(O)c3)c2)[C@@H](OC(=O)c2cc(O)c(O)c(OC(=O)c3cc(O)c(O)c(O)c3)c2)[C@@H]1OC(=O)c1cc(O)c(O)c(OC(=O)c2cc(O)c(O)c(O)c2)c1)c1cc(O)c(O)c(OC(=O)c2cc(O)c(O)c(O)c2)c1 [Tannic acid]
